From patent US10717090B2, “Depression of copper and iron sulfides in molybdenite flotation circuits” (TESSENDERLO KERLEY, INC., priority 2014, dated 2020)

What was measured:
[1] = H2S evolution vs. pH in simulated flotation process (headspace analysis); type: physicochemical; settings: pH adjusted to between 9 and 9.5, ambient temperature
Method: The H2S evolution due to the decomposition of depressant reagents during storage, handling and application presents the highest associated hazard with regards to health and safety (HSE). Testing of TKI's Alkaline Polysulfide products against the standard (NaHS reagent) was conducted in a simulated flotation process using lab apparatus to determine the amount of H2S evolved at various pH's. The tests were conducted using the following testing protocol; • All tests were ran at ambient temperatures using tap water. Add 500 ml of tap water to […] glass apparatus, check pH and temp, start and maintain stirring throughout test. • Add Ca(OH)2 to raise pH to approximately 10.5 • Add 5 mL of reagent. • Allow to stabilize for 2 min, with cracking of stopper to equilibrate at 1 min. • Check pH, temperature and H2S in VP using analyzer. • Add H2SO4 to decrease pH to ˜9. • Allow to stabilize for 2 min, with cracking of stopper to equilibrate at 1 min. • Check pH, temperature and H2S in VP using analyzer. • Repeat last three Steps for pH 9, 8 and 7 if applicable.
Note the H2S in the vapor phase above the polysulfide samples increased to 1500 ppm at pH near 8.2, while this 1500 ppm level was reached by NaHS samples at pH 9.1 to 9.3. […] This would translate into a less hazardous environment in applications where the process is run ran at lower pH's (˜9) utilizing for example CO2 as a flotation medium or modifying agent.
Values above 1500 ppm are lower limits, as the H2S meter maximum reading was 2000 PPM. […] Therefore, this invention may show significant health and safety benefits even at pH near 8.

[2] = system: mammals; settings: cited from earlier work

Molecule	H2S in vapor phase [1]	LD50 [2]
Sodium Polysulfide [NaPS]	remained low	–
Potassium Polysulfide [KPS]	presumably KPS remained low	–
Calcium Polysulfide [CaPS]	remained low	about 0.8 grams per kilogram of body weight
S [NaHS, Sodium hydrosulfide, reference compound]	1500 ppm	–
